# Where a name gives a salt, the structure may show the parent alone.
# Tested on: subjects undergoing elective outpatient laparoscopic cholecystectomy
# Assay: Example 16 trial: safety
# Type: in vivo
# Description: The trial included: 1) a randomized, parallel-group, double-blind, placebo-controlled study (Part 1) and a randomized, parallel-group, double-blind, bupivacaine HCl active-controlled study (Part 2). The trial evaluated the efficacy and safety of Formulation A (bupivacaine, benzyl alcohol, sucrose acetate isobutyrate) as a delivery system in subjects undergoing elective outpatient laparoscopic cholecystectomy.
# There were no fatalities in this trial. […]
compound,measurement,setting,value
"CCCCN1CCCCC1C(=O)Nc1c(C)cccc1C (stereo not drawn) [bupivacaine HCl, bupivacaine hydrochloride]","Fatal TEAE, number of subjects",Part 2 (N = 148 per group),0
same,"Fatal TEAE, percent of subjects",Part 2 (N = 148 per group),(0.0%)
same,"At Least One LogPad-Solicited TEAE, number of subjects","human, in vivo",132
same,"At Least One LogPad-Solicited TEAE, percent of subjects","human, in vivo",(89.2%)
same,"At Least One Serious TEAE, number of subjects","human, in vivo",3
same,"At Least One Serious TEAE, percent of subjects","human, in vivo",(2.0%)
same,"At Least One Serious and Related TEAE, number of subjects","human, in vivo",0
same,"At Least One Serious and Related TEAE, percent of subjects","human, in vivo",(0.0%)
same,"At Least One Severe and Related TEAE, number of subjects","human, in vivo",0
same,"At Least One Severe and Related TEAE, percent of subjects","human, in vivo",(0.0%)
same,"At Least One Spontaneously-reported TEAE, number of subjects","human, in vivo",138
same,"At Least One Spontaneously-reported TEAE, percent of subjects","human, in vivo",(93.2%)
same,"At Least One TEAE Leading to Study Discontinuation, number of subjects","human, in vivo",1
same,"At Least One TEAE Leading to Study Discontinuation, percent of subjects","human, in vivo",(0.7%)
same,"At Least One TEAE, number of subjects","human, in vivo",146
same,"At Least One TEAE, percent of subjects","human, in vivo",(98.6%)
same,"TEAE Maximum Relationship to Study Drug: Not Related, number of subjects","human, in vivo",42
same,"TEAE Maximum Relationship to Study Drug: Not Related, percent of subjects","human, in vivo",(28.4%)
same,"TEAE Maximum Relationship to Study Drug: Related, number of subjects","human, in vivo",104
same,"TEAE Maximum Relationship to Study Drug: Related, percent of subjects","human, in vivo",(70.3%)
same,"TEAE Maximum Severity: Mild, number of subjects","human, in vivo",92
same,"TEAE Maximum Severity: Mild, percent of subjects","human, in vivo",(62.2%)
same,"TEAE Maximum Severity: Moderate, number of subjects","human, in vivo",49
same,"TEAE Maximum Severity: Moderate, percent of subjects","human, in vivo",(33.1%)
same,"TEAE Maximum Severity: Severe, number of subjects","human, in vivo",5
same,"TEAE Maximum Severity: Severe, percent of subjects","human, in vivo",(3.4%)
same,treated subjects with treatment-emergent serious adverse events,"human, in vivo",3 subjects
